Like-named read-outs stand apart in the source and are kept apart here.
Legend:
OCI-LY3 = experiment: Cytotoxicity assay (MTT, 72 h) OCI-LY3; format: cell-based, Human; details: for IC50: Homo sapiens, OCI-Ly3, 72 h, MTT assay, read-out: IC50 ± SD OCI-LY3
Description: (§1) Human tumor cells were seeded in 96-well cell culture plastic plates, allowed to attach, and exposed to scalar concentrations of the test compounds.

L-428 = experiment: Cytotoxicity assay (MTT, 72 h) L-428; format: cell-based, Human; details: for IC50: Homo sapiens, L-428, 72 h, MTT assay, read-out: IC50 ± SD L-428
Description: as §1

RPMI-8226 = experiment: Cytotoxicity assay (MTT, 72 h) RPMI-8226; format: cell-based; details: Homo sapiens, read-out: IC50 ± SD RPMI-8226
Description: as §1

[1] = system: primary malignant pleural mesothelioma (MPM) cell lines; experiment: Primary malignant pleural mesothelioma (MPM) cell lines (summary); format: cell-based; details: Homo sapiens, span over the cell line panel, 72 h, read-out: IC50 across primary mesothelioma cell lines (Table 7)
NCI-H460 NSCLC cells = experiment: FACS analysis of cell cycle and apoptosis; format: cell-based, Human; details: 72 h at own IC80 dose, PI staining; for Sub-G0/1 (%): apoptosis
H2A.X = experiment: Western blot, H2A.X induction in NCI-H460 cells; format: cell-based, Human; details: 24 h; SAHA 5 μM, SN38 0.05 μM, 3d 0.125–0.2–0.5 μM
Description: (§2) The supernatant, containing the total proteins extracts, were transferred in new vials. The protein concentration was measured by Bradford Protein Assay. Equal amounts of proteins for each sample were then resolved by SDS-PAGE and loaded on 10–12% polyacrilamide gels. The proteins were then transferred on nitrocellulose membranes. Molecular weights were estimated based upon the relative migration with molecular weight protein markers.
(§3) The non-specific binding was blocked by incubation of membranes in TBS-tween (25 mM Tris, 150 mM NaCl, 0.1% Tween 20) with 5% nonfat dry milk (BIORAD, Milan) for 60 minutes. Subsequently, the membrane was incubated overnight with primary antibodies: anti-Histone H4 (Millipore, 1:500), anti-acetyl-H4 (Santa Cruz, 1:1000) anti-p21 (Santa Cruz, 1:1000), anti-acetyl-tubulin (abcam, 1:1000), anti-α-tubulin (Sigma, 1:5000), anti β-actin (Sigma, 1:5000) and anti-Topoisomerase 1 (Santa Cruz, 1:500). After three washes with TBST blots were incubated with HRP-coniugated secondary anti-mouse and anti-rabbit (Santa Cruz, 1:5000) 1 hour at room temperature. After three washes with TBST the blots were developed with ECL substrate (GE Healthcare) and chemiluminescence detected by ChemiDoc Imaging System (Biorad). The optical density of the protein bands detected by western blotting was normalized on α -tubulin levels and analyzed by ChemiDoc software (Biorad).
(§4) Cells were lysed in 0.5% NP-40 and 40 μg of total proteins were loaded on NuPAGE 4–12% (Invitrogen), transferred to a nitrocellulose paper and probed with specific antibodies.

p53 = experiment: Western blot, p53 in NCI-H460 cells; format: cell-based, Human; details: 24 h; SAHA 5 μM, SN38 0.05 μM, 3d 0.125–0.2–0.5 μM
Description: as §2, §3, §4

p21 = experiment: Western blot, p21 in NCI-H460 cells; format: cell-based, Human; details: 24 h; SAHA 5 μM, SN38 0.05 μM, 3d 0.125–0.2–0.5 μM
Description: as §2
as §3, with “software (Biorad). […]” for “software (Biorad).”

p16 = experiment: Western blot, p16 in NCI-H460 cells; format: cell-based, Human; details: 24 h; SAHA 5 μM, SN38 0.05 μM, 3d 0.125–0.2–0.5 μM
Description: as §2, §3, §4

CycD1 = experiment: Western blot, CycD1 in NCI-H460 cells; format: cell-based, Human; details: 24 h; SAHA 5 μM, SN38 0.05 μM, 3d 0.125–0.2–0.5 μM
Description: as §2, §3, §4

NCI-H460 = experiment: Cytotoxicity assay (SRB, 72 h) NCI-H460; format: cell-based, Human; details: Homo sapiens, NCI-H460; 72 h, SRB assay; read-out: IC50 ± SD NCI-H460
A2780 = experiment: Cytotoxicity assay (SRB, 72 h) A2780; format: cell-based, Human; details: Homo sapiens, A2780, read-out: IC50 ± SD A2780
A2780-Dx = experiment: Cytotoxicity assay (SRB, 72 h) A2780-Dx; format: cell-based, Human; details: for IC50: Homo sapiens, A2780/DX, 72 h, SRB assay, multidrug-resistant ovarian carcinoma, read-out: IC50 ± SD A2780-Dx
Capan 1 = experiment: Cytotoxicity assay (SRB, 72 h) Capan 1; format: cell-based, Human; details: Homo sapiens, CAPAN-1, read-out: IC50 ± SD Capan 1
A431 = experiment: Cytotoxicity assay (SRB, 72 h) A431; format: cell-based, Human; details: Homo sapiens, A-431, read-out: IC50 ± SD A431
HeLa = experiment: Cytotoxicity assay (SRB, 72 h) HeLa; format: cell-based, Human; details: Homo sapiens, HeLa, read-out: IC50 ± SD HeLa
HT29 = experiment: Cytotoxicity assay (SRB, 72 h) HT29; format: cell-based, Human; details: Homo sapiens, HT-29, read-out: IC50 ± SD HT29
DU145 = experiment: Cytotoxicity assay (SRB, 72 h) DU145; format: cell-based, Human; details: Homo sapiens, DU-145, read-out: IC50 ± SD DU145
HepG2 = experiment: Cytotoxicity assay (SRB, 72 h) HepG2; format: cell-based, Human; details: Homo sapiens, HepG2, read-out: IC50 ± SD HepG2
[2] = system: series of human tumor cell lines; experiment: Antiproliferative activity, series of human tumor cell lines (summary); format: cell-based; details: span over the cell line panel, 72 h, SRB assay, read-out: IC50 across the human tumor cell lines of Table 3
MINO = experiment: Cytotoxicity assay (MTT, 72 h) MINO; format: cell-based, Human
MAVER-2 = experiment: Cytotoxicity assay (MTT, 72 h) MAVER-2; format: cell-based, Human; details: Homo sapiens, read-out: IC50 ± SD MAVER-2
JECO-1 = experiment: Cytotoxicity assay (MTT, 72 h) JECO-1; format: cell-based, Human
U-2932 = experiment: Cytotoxicity assay (MTT, 72 h) U-2932; format: cell-based, Human; details: Homo sapiens, U2932, read-out: IC50 ± SD U-2932
KM-H2 = experiment: Cytotoxicity assay (MTT, 72 h) KM-H2; format: cell-based, Human
DG-75 = experiment: Cytotoxicity assay (MTT, 72 h) DG-75; format: cell-based, Human
NB4 = experiment: Cytotoxicity assay (MTT, 72 h) NB4; format: cell-based, Human; details: Homo sapiens, NB-4, read-out: IC50 ± SD NB4
[3] = system: hematologic cancer cell lines; experiment: Screening on hematologic cancer cell lines (summary); format: cell-based; details: Homo sapiens, read-out: IC50 across hematologic cancer cell lines (Tables 5 and 6); span over the cell line panel, 72 h, MTT assay
MM288 = experiment: Cytotoxicity assay, primary mesothelioma MM288; format: cell-based, Human; details: epithelioid, 72 h, SBR assay, read-out: IC50 ± SD MM288
MM317 = experiment: Cytotoxicity assay, primary mesothelioma MM317; format: cell-based, Human; details: epithelioid, 72 h, SBR assay, read-out: IC50 ± SD MM317
MM487 = experiment: Cytotoxicity assay, primary mesothelioma MM487; format: cell-based, Human; details: biphasic, 72 h, SBR assay, read-out: IC50 ± SD MM487
MM432 = experiment: Cytotoxicity assay, primary mesothelioma MM432; format: cell-based, Human; details: sarcomatoid, 72 h, SBR assay, read-out: IC50 ± SD MM432
[4] = system: human epithelioid mesothelioma MM473-Luc; experiment: In vivo antitumor activity, orthotopic MM473-Luc xenograft; details: i.v. 35 mg/kg, q4dx3, treatment from day 15
MM404 = experiment: Cytotoxicity assay, primary mesothelioma MM404; format: cell-based, Human; details: epithelioid, 72 h, SBR assay; read-out: IC50 ± SD MM404
MM473 = experiment: Cytotoxicity assay, primary mesothelioma MM473; format: cell-based, Human; details: epithelioid, 72 h, SBR assay; read-out: IC50 ± SD MM473
MM481 = experiment: Cytotoxicity assay, primary mesothelioma MM481; format: cell-based, Human; details: epithelioid, 72 h, SBR assay; read-out: IC50 ± SD MM481
MM491 = experiment: Cytotoxicity assay, primary mesothelioma MM491; format: cell-based, Human; details: biphasic, 72 h, SBR assay; read-out: IC50 ± SD MM491
MM472 = experiment: Cytotoxicity assay, primary mesothelioma MM472; format: cell-based, Human; details: sarcomatoid, 72 h, SBR assay; read-out: IC50 ± SD MM472
[5] = meaning not defined in the paper, given beside >10 μM

## O=C(CCCCCCC(=O)Nc1ccccc1)NO [SAHA, suberoylanilide hydroxamic acid]
OCI-LY3
  IC50: 0.99 ± 0.3 µM
L-428
  IC50: 2.3 ± 0.5 µM
RPMI-8226
  IC50: 1.98 ± 0.5 µM
[1]
  IC50: 4 to 12 µM
NCI-H460 NSCLC cells
  G0/1 (%): 65.2%
  G2/M (%): 23.1%
  S (%): 11.7%
  Sub-G0/1 (%): 1.8%
H2A.X
  H2A.X induction (DNA damage): completely ineffective in H2A.X induction
p53
  p53 activation: less effective in p53 up-regulation
p21
  expression of p21: induction of p21
p16
  P16 regulation: down
CycD1
  CycD1 regulation: up-regulated

## CC[C@@]1(O)C(=O)OCc2c1cc1n(c2=O)Cc2c-1nc1ccccc1c2C=NOCCCCCCNC(=O)CS [Compound 10, N-[camptothecin-7-yl-(methyleneaminooxy)-hexyl]-2-mercaptoacetamide]
NCI-H460
  IC50: 0.1 ± 0.01 µM
A2780
  IC50: 0.21 ± 0.05 µM
A2780-Dx; A2780-Dx versus A2780
  RI (Resistance Index): 1.7
A2780-Dx
  IC50: 0.35 ± 0.1 µM
other
  melting point: 120 °C

## CCc1c2c(nc3ccc(OC(=O)N4CCC(N5CCCCC5)CC4)cc13)-c1cc3c(c(=O)n1C2)COC(=O)[C@]3(O)CC [Irinotecan]
NCI-H460
  IC50: 2.4 ± 0.1 µM
Capan 1
  IC50: 1.5 ± 0.1 µM
A431
  IC50: 4.1 ± 0.1 µM
HeLa
  IC50: 5.8 ± 0.6 µM
HT29
  IC50: 4.8 ± 0.4 µM
DU145
  IC50: 2.8 ± 0.07 µM
HepG2
  IC50: 4 ± 0.8 µM
A2780
  IC50: 3.8 ± 0.5 µM
A2780-Dx
  IC50: 20.1 ± 2.9 µM
[2]
  IC50: > 1.5 µM
MINO; Homo sapiens, MINO, 72 h, MTT assay, read-out: IC50 ± SD MINO
  IC50: > 10 µM
MINO; [5]
  percentage in parentheses after IC50 >10, MINO: 36%
MAVER-2
  IC50: 0.74 ± 0.1 µM
JECO-1; Homo sapiens, 72 h, MTT assay, read-out: IC50 ± SD JECO-1
  IC50: > 10 µM
JECO-1; [5]
  percentage in parentheses after IC50 >10, JECO-1: 48%
U-2932
  IC50: 4.4 ± 0.8 µM
OCI-LY3
  IC50: > 10 µM
OCI-LY3; [5]
  percentage in parentheses after IC50 >10, OCI-LY3: 0%
L-428
  IC50: > 10 µM
L-428; [5]
  percentage in parentheses after IC50 >10, L-428: 0%
KM-H2; Homo sapiens, KM-H2, 72 h, MTT assay, read-out: IC50 ± SD KM-H2
  IC50: > 10 µM
KM-H2; [5]
  percentage in parentheses after IC50 >10, KM-H2: 12%
DG-75; Homo sapiens, DG-75, 72 h, MTT assay, read-out: IC50 ± SD DG-75
  IC50: > 10 µM
DG-75; [5]
  percentage in parentheses after IC50 >10, DG-75: 0%
NB4
  IC50: 1 ± 0.3 µM
[3]
  IC50: > 10 µM
MM288; Homo sapiens
  IC50: 14.9 ± 2 µM
MM317; Homo sapiens
  IC50: 7 ± 1 µM
MM487; Homo sapiens, MM487
  IC50: 9.4 ± 0.7 µM
MM432; Homo sapiens
  IC50: 10 ± 2 µM
[1]
  IC50: > 7 µM
NCI-H460 NSCLC cells
  G0/1 (%): 7.9%
  G2/M (%): 3.2%
  S (%): 89.0%
  Sub-G0/1 (%): 2.7%
[4]
  antitumor activity (BLI signal, average radiance): only a marginal antitumor effect

## N.N.[Cl][Pt][Cl] [Cisplatin]
MM288
  IC50: 8.1 ± 0.3 µM
MM317
  IC50: 4.2 ± 0.6 µM
MM404
  IC50: 2.4 ± 0.5 µM
MM473
  IC50: 2.4 ± 0.2 µM
MM481
  IC50: 7 ± 1.5 µM
MM487
  IC50: 3 ± 0.5 µM
MM491
  IC50: 6.5 ± 0.9 µM
MM432
  IC50: 5 ± 0.8 µM
MM472
  IC50: 1.26 ± 0.1 µM

Source: PMC6177136, “Hybrid topoisomerase I and HDAC inhibitors as dual action anticancer agents” (PLoS ONE, 2018)
